According to patent EP0048613B1, “4-0-Substituted -2-deoxystreptamine aminoglycoside derivatives, their preparation and formulations containing them” (ELI LILLY AND COMPANY, priority 1980, dated 1982):

Experiments:
[1] = test system: Staphylococcus aureus 3055; experiment: Subcutaneous therapy of experimental bacterial infection in mice; format: in vivo; conditions: subcutaneous doses at 1 and 5 hours post infection, challenged with 331 LD50's
Procedure: Table II illustrates the effective dose (ED50, effective dose to protect 50 percent of the test animals) for representative compounds of this invention against an experimental bacterial infection in mice.
The EDso values were determined as described by W. E. Wick et al., Journal of Bacteriology, 81 [No. 2], 233-235 (1961).

Shigella sonnei N9 = experiment: MIC, standard agar dilution test; format: cell-based
Description: (§1) The antibacterial activity of the deprotected compounds of this invention is illustrated by the following in vitro and in vivo test data obtained with representative compounds. In Table I, the minimum inhibitory concentration (MIC) for representative compounds against a wide range of gram-positive and gram-negative bacteria is presented. The MIC values were obtained by the standard agar dilution test.

Hemophilus influenzae 76 = experiment: MIC, standard agar dilution test; format: cell-based
Description: as §1

[2] = test system: Klebsiella pneumoniae KAE; experiment: MIC, standard agar dilution test; format: cell-based
Description: as §1

[3] = test system: Staphylococcus aureus X1.1; experiment: MIC, standard agar dilution test; format: cell-based
Description: as §1

Proteus morganii PR15 = experiment: MIC, standard agar dilution test; format: cell-based
Description: as §1

[4] = test system: Enterobacter aerogenes X68; experiment: MIC, standard agar dilution test; format: cell-based
Description: as §1

Serratia marcescens SE3 = experiment: MIC, standard agar dilution test; format: cell-based
Description: as §1

[5] = test system: Hemophilus influenzae C.L.; experiment: MIC, standard agar dilution test; format: cell-based
Description: as §1

[6] = test system: Streptococcus pneumoniae Park I; experiment: MIC, standard agar dilution test; format: cell-based; conditions: Streptococcus pneumoniae Park I; agar dilution
Description: as §1

[7] = test system: Bordetella bronchiseptica 16; experiment: MIC, standard agar dilution test; format: cell-based
Description: as §1

Proteus rettgeri PR7 = experiment: MIC, standard agar dilution test; format: cell-based
Description: as §1

Serratia marcescens X99 = experiment: MIC, standard agar dilution test; format: cell-based
Description: as §1

[8] = test system: Salmonella typhimurium 1335; experiment: MIC, standard agar dilution test; format: cell-based
Description: as §1

[9] = test system: Staphylococcus epidermidis EPI2; experiment: MIC, standard agar dilution test; format: cell-based
Description: as §1

[10] = test system: Enterobacter aerogenes EB17; experiment: MIC, standard agar dilution test; format: cell-based
Description: as §1

[11] = test system: Staphylococcus aureus S13E; experiment: MIC, standard agar dilution test; format: cell-based; conditions: Staphylococcus aureus S13E; agar dilution
Description: as §1

[12] = test system: Staphylococcus aureus X400; experiment: MIC, standard agar dilution test; format: cell-based
Description: as §1

[13] = test system: Streptococcus group D 9960; experiment: MIC, standard agar dilution test; format: cell-based
Description: as §1

[14] = test system: Staphylococcus epidermidis EPI1; experiment: MIC, standard agar dilution test; format: cell-based; conditions: Staphylococcus epidermidis EPI1; agar dilution
Description: as §1

[15] = test system: Pseudomonas aeruginosa Ps18; experiment: MIC, standard agar dilution test; format: cell-based
Description: as §1

[16] = test system: Citrobacter freundii CF17; experiment: MIC, standard agar dilution test; format: cell-based
Description: as §1

[17] = test system: Enterobacter cloacae 265A; experiment: MIC, standard agar dilution test; format: cell-based
Description: as §1

[18] = test system: Staphylococcus aureus V41; experiment: MIC, standard agar dilution test; format: cell-based
Description: as §1

[19] = test system: Enterobacter aerogenes C32; experiment: MIC, standard agar dilution test; format: cell-based
Description: as §1

Proteus rettgeri C24 = experiment: MIC, standard agar dilution test; format: cell-based
Description: as §1

[20] = test system: Streptococcus pyogenes C203; experiment: MIC, standard agar dilution test; format: cell-based
Description: as §1

Enterobacter cloacae EB5 = experiment: MIC, standard agar dilution test; format: cell-based
Description: as §1

[21] = test system: Klebsiella pneumoniae X26; experiment: MIC, standard agar dilution test; format: cell-based
Description: as §1

[22] = test system: Pseudomonas aeruginosa X239; experiment: MIC, standard agar dilution test; format: cell-based
Description: as §1

[23] = test system: Salmonella heidelberg X514; experiment: MIC, standard agar dilution test; format: cell-based
Description: as §1

Proteus inconstans PR33 = experiment: MIC, standard agar dilution test; format: cell-based
Description: as §1

[24] = test system: Pseudomonas aeruginosa X528; experiment: MIC, standard agar dilution test; format: cell-based
Description: as §1

Escherichia coli EC14 = experiment: MIC, standard agar dilution test; format: cell-based
Description: as §1

Escherichia coli TEM = experiment: MIC, standard agar dilution test; format: cell-based; conditions: Escherichia coli TEM; agar dilution
Description: as §1

Escherichia coli N10 = experiment: MIC, standard agar dilution test; format: cell-based
Description: as §1

[25] = test system: Streptococcus group D X66; experiment: MIC, standard agar dilution test; format: cell-based
Description: as §1

## 2′-N-(RS-γ-Amino-α-hydroxybutyryl)apramycin [Test compound 2]
[1]
  Effective dose (ED50): 21.8^2 mg/kg×2
Shigella sonnei N9
  Minimum inhibitory concentration: 32 µg/mL
Hemophilus influenzae 76
  Minimum inhibitory concentration: 32 µg/mL
[2]
  Minimum inhibitory concentration: 32 µg/mL
[3]
  Minimum inhibitory concentration: 16 µg/mL
Proteus morganii PR15
  Minimum inhibitory concentration: 128 µg/mL
[4]
  Minimum inhibitory concentration: 16 µg/mL
Serratia marcescens SE3
  Minimum inhibitory concentration: 32 µg/mL
[5]
  Minimum inhibitory concentration: 32 µg/mL
[6]
  Minimum inhibitory concentration: 32 µg/mL
[7]
  Minimum inhibitory concentration: 128 µg/mL
Proteus rettgeri PR7
  Minimum inhibitory concentration: 16 µg/mL
Serratia marcescens X99
  Minimum inhibitory concentration: 16 µg/mL
[8]
  Minimum inhibitory concentration: 32 µg/mL
[9]
  Minimum inhibitory concentration: 8 µg/mL
[10]
  Minimum inhibitory concentration: 32 µg/mL
[11]
  Minimum inhibitory concentration: 16 µg/mL
[12]
  Minimum inhibitory concentration: 64 µg/mL
[13]
  Minimum inhibitory concentration: >128 µg/mL
[14]
  Minimum inhibitory concentration: 16 µg/mL
[15]
  Minimum inhibitory concentration: 128 µg/mL
[16]
  Minimum inhibitory concentration: 32 µg/mL
[17]
  Minimum inhibitory concentration: 64 µg/mL
[18]
  Minimum inhibitory concentration: 32 µg/mL
[19]
  Minimum inhibitory concentration: 16 µg/mL
Proteus rettgeri C24
  Minimum inhibitory concentration: 16 µg/mL
[20]
  Minimum inhibitory concentration: 32 µg/mL
Enterobacter cloacae EB5
  Minimum inhibitory concentration: 32 µg/mL
[21]
  Minimum inhibitory concentration: 8 µg/mL
[22]
  Minimum inhibitory concentration: 128 µg/mL
[23]
  Minimum inhibitory concentration: 32 µg/mL
Proteus inconstans PR33
  Minimum inhibitory concentration: 32 µg/mL
[24]
  Minimum inhibitory concentration: 128 µg/mL
Escherichia coli EC14
  Minimum inhibitory concentration: 32 µg/mL
Escherichia coli TEM
  Minimum inhibitory concentration: 8 µg/mL
Escherichia coli N10
  Minimum inhibitory concentration: 16 µg/mL
[25]
  Minimum inhibitory concentration: >128 µg/mL
